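96-well plates; 48 h exposure; 5 concentrations. Endpoints by linear interpolation between flanking doses. Not reached: highest tested concentration assigned. TGI: total growth inhibition.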
Tests used:
Test in all cases: DTP human tumour cell line panel, 48 h
NCI-H226 lung = tested on: NCI-H226 lung
UO-31 renal = tested on: UO-31 renal
HCT-116 colon = tested on: HCT-116 colon
OVCAR-3 ovarian = tested on: OVCAR-3 ovarian
HT29 colon = tested on: HT29 colon
SK-MEL-28 melanoma = tested on: SK-MEL-28 melanoma
MOLT-4 leukemia = tested on: MOLT-4 leukemia
MDA-MB-231 breast = tested on: MDA-MB-231 breast
MCF7 breast = tested on: MCF7 breast
KM12 colon = tested on: KM12 colon

Compound | TGI (NCI-H226 lung) | TGI (UO-31 renal) | TGI (HCT-116 colon) | TGI (OVCAR-3 ovarian) | TGI (HT29 colon) | TGI (SK-MEL-28 melanoma) | TGI (MOLT-4 leukemia) | TGI (MDA-MB-231 breast) | TGI (MCF7 breast) | TGI (KM12 colon)
C1CN(C23OC4(N5CCOCC5)C5C6CC(C7C6C4C72)C53)CCO1 (stereo not drawn) | > 100 µM | > 100 µM | > 100 µM | > 100 µM | > 100 µM | > 100 µM | > 100 µM | > 100 µM | > 100 µM | > 100 µM
CN(NC(=O)/C(=C/C=C/c1ccccc1)NC(=O)c1ccccc1)C1=C(Cl)C(=O)[N+](c2ccccc2)=CC1 | 37.7 µM | > 100 µM | 45.7 µM | 44.9 µM | > 100 µM | 37.1 µM | 81.9 µM | 37.5 µM | 36.3 µM | 34 µM
CCOC(=O)C1C2C1C1C(C(=O)OCC)C21 (stereo not drawn) | > 100 µM | > 100 µM | > 100 µM | > 100 µM | > 100 µM | > 100 µM | > 100 µM | > 100 µM | > 100 µM | > 100 µM
Cc1cccc(/C=N/NC(=S)NC(C)(C)C)n1 | > 100 µM | > 100 µM | > 100 µM | > 100 µM | > 100 µM | > 100 µM | > 100 µM | > 100 µM | > 100 µM | > 100 µM
CC(=O)N/N=C1\NN(C(C)=O)C2(S1)C(=O)Nc1ccccc12 (stereo not drawn) | > 100 µM | > 100 µM | > 100 µM | > 100 µM | > 100 µM | > 100 µM | > 100 µM | > 100 µM | > 100 µM | > 100 µM
C=C1C[C@]23CC[C@@H]4C(CO)(CO)CC(=O)C[C@]4(C)[C@@H]2C(O)C[C@H]1C3 (stereo partly drawn) | > 100 µM | > 100 µM | > 100 µM | > 100 µM | > 100 µM | > 100 µM | > 100 µM | > 100 µM | > 100 µM | > 100 µM
COc1ccc(C2=C(N)c3ccccc3C2=O)cc1 | > 100 µM |  | > 100 µM | > 100 µM | > 100 µM | > 100 µM | > 100 µM | > 100 µM | > 100 µM | > 100 µM
O=C(O)c1cc2c(cc1CC(Cc1ccccc1)C(=O)O)CCC2 (stereo not drawn) | > 100 µM | > 100 µM | > 100 µM | > 100 µM | > 100 µM | > 100 µM | > 100 µM | > 100 µM | > 100 µM | > 100 µM
CCCS(=O)OC1C(C2COC(C)(C)O2)OC2OC(C)(C)OC21 (stereo not drawn) | 46.2 µM | 28.3 µM | 19.4 µM | 29.3 µM | 17.9 µM | 32.7 µM | 6.57 µM | 32.6 µM | 27.3 µM | 28.2 µM
Cc1ccc(N=Nc2cc(=O)[nH]c(=O)[nH]2)cc1C | 41.8 µM | 32.6 µM | 22.5 µM | 4.19 µM | 4.51 µM | 34.3 µM | > 100 µM | 24.2 µM | 29.4 µM | 24.5 µM
O=C(NC(Cc1c[nH]c2ccccc12)C(=O)O)/C(=C/c1ccccc1)NC(=O)c1ccccc1 (stereo not drawn) | > 100 µM | > 100 µM | > 100 µM | > 100 µM | > 100 µM | > 100 µM | > 100 µM | > 100 µM | > 100 µM | > 100 µM
NC(=O)CN1CCN(c2nc(N3CCCC3)c3nc(Cl)c(NCc4ccccc4)nc3n2)CC1 | 39.9 µM | 21.9 µM | 14.7 µM | 16.3 µM | 18 µM | 18.5 µM | 20.3 µM | 20.6 µM | 16.6 µM | 22 µM
COc1cc(/C=C/C=C2\CC(C)C/C(=C\C=C\c3ccc(O)c(OC)c3)C2=O)ccc1O (stereo not drawn) | 28 µM | 25.1 µM | > 100 µM | 31.1 µM | 31 µM | 45.5 µM | 29.6 µM | 32.4 µM | 42 µM | > 100 µM
CC(=O)Oc1ccc(-c2c(OC(C)=O)c(OC(C)=O)c(-c3ccc(OC(C)=O)c(OC(C)=O)c3)c(OC(C)=O)c2OC(C)=O)cc1 | 35.5 µM | 28.8 µM | 40.2 µM | 30 µM | 36.1 µM | 28.4 µM | 44.3 µM | 35.4 µM | 50.6 µM | 28.1 µM
O=c1c2cc(Cl)ccc2n2nnc3ccc(NCCNCCO)c1c32 | 4.13 µM | 3.49 µM | 2.33 µM | 4.16 µM | 2.74 µM | 3.26 µM | 6.59 µM | 2.81 µM | 9.46 µM | 3.48 µM
CCCCCCCCCCCOCCC1C(C(C)OCCN2CCCC2)OC2OC(C)(C)OC21 (stereo not drawn) | 24.5 µM | 6.51 µM | 3.38 µM | 12.3 µM | 3.5 µM | 3.08 µM | 5.93 µM | 3.97 µM | 6.58 µM | 1.78 µM
COc1ccc(N2C(=O)CSC2c2cc(OC)c(OC)c(OC)c2)cc1 (stereo not drawn) | > 100 µM | 27.1 µM | 33.4 µM | 64.8 µM | 57.1 µM | > 100 µM | > 100 µM | 78.1 µM | > 100 µM | 32.9 µM

Compound | TGI (NCI-H226 lung) | TGI (UO-31 renal) | TGI (HCT-116 colon) | TGI (OVCAR-3 ovarian) | TGI (HT29 colon) | TGI (SK-MEL-28 melanoma) | TGI (MOLT-4 leukemia) | TGI (MDA-MB-231 breast) | TGI (MCF7 breast) | TGI (KM12 colon)
Nc1ncc(Cc2nn3c(COc4ccc(Cl)cc4)nnc3s2)s1 | > 100 µM | > 100 µM | > 100 µM | > 100 µM | > 100 µM | > 100 µM | > 100 µM | > 100 µM | > 100 µM | > 100 µM
OCC(CO)CC1COc2ccccc2O1 (stereo not drawn) | > 10 µM | > 10 µM | > 10 µM | > 10 µM | > 10 µM | > 10 µM | > 10 µM | > 10 µM | > 10 µM | > 10 µM
CC(C)=CCC/C(C)=C/CCC1(C)C2COC(=O)C21 (stereo not drawn) | > 100 µM | > 100 µM | > 100 µM | > 100 µM | > 100 µM | > 100 µM | > 100 µM | > 100 µM | > 100 µM | > 100 µM
NC(=O)Nc1n[nH]c(-c2ccccc2)n1 | > 100 µM | > 100 µM | > 100 µM | > 100 µM | > 100 µM | > 100 µM | > 100 µM | > 100 µM | > 100 µM | > 100 µM
CC(C)(CN1CCCCC1)C(=O)CC(SCCS(=O)(=O)O)c1ccc(Cl)c(Cl)c1 (stereo not drawn) | 39.1 µM | 16.4 µM | 10.6 µM | 6.97 µM | 10.9 µM |  | 8.06 µM | 4.82 µM | 15.3 µM | 23 µM
OCC1=C[C@@](COCc2ccccc2)(OCc2ccccc2)[C@@H](OCc2ccccc2)[C@@H]1OCc1ccccc1 | 35.3 µM | 67.1 µM | 47 µM | 27.3 µM | 35.6 µM | > 100 µM | 8.89 µM | 25.4 µM | 23.8 µM | 56.6 µM
CC(CN(C)C)C(O)(c1ccccc1)c1ccccc1 (stereo not drawn) | > 100 µM | > 100 µM | > 100 µM | > 100 µM | > 100 µM | > 100 µM | > 100 µM | > 100 µM | > 100 µM | > 100 µM
Cc1nc(-c2ccc(Cl)cc2)cn2c1nc1ccccc12 | > 100 µM | > 100 µM | > 100 µM | > 100 µM | > 100 µM | > 100 µM | > 100 µM | > 100 µM | > 100 µM | > 100 µM
CCOc1cc(C=Nc2ccc(Oc3ccc(Cl)cc3)c(Cl)c2)ccc1O | 90.2 µM | 30.3 µM | 37.8 µM | 85.7 µM | 46.6 µM | 63.1 µM | 67.3 µM | 42.1 µM | > 100 µM | 39 µM
C[C@@H](CC(O)C(O)C(C)(C)O)C1CCC23CC12CCC1[C@@]2(C)CCC(=O)C(C)(C)C2CC(OC2OC(CO)C(O)C(O)C2O)[C@]13C (stereo partly drawn) | > 10 µM | > 10 µM | > 10 µM | > 10 µM | > 10 µM | > 10 µM | > 10 µM | > 10 µM | > 10 µM | > 10 µM
NC(Cc1ccccc1)C(=O)O (stereo not drawn) | > 100 µM | > 100 µM | > 100 µM | > 100 µM | > 100 µM | > 100 µM | > 100 µM | > 100 µM | > 100 µM | > 100 µM
COc1cc2c(cc1OCc1ccccc1)NC(=O)[C@@H]1C[C@@H](O)CN1C2=O | > 100 µM | > 100 µM | > 100 µM | > 100 µM | > 100 µM | > 100 µM | > 100 µM | > 100 µM | > 100 µM | > 100 µM
CCSc1nn(-c2c3ccccc3nc3ccccc23)c(=S)s1 | > 100 µM | > 100 µM | > 100 µM | > 100 µM | > 100 µM | > 100 µM | > 100 µM | > 100 µM | > 100 µM | > 100 µM
Clc1cccc(Cl)c1C1ON=C(c2ccccc2)N1C12CC3CC(CC(C3)C1)C2 (stereo not drawn) | > 100 µM | > 100 µM | 59.9 µM | 74.7 µM | > 100 µM | > 100 µM | 46.3 µM | > 100 µM | > 100 µM | 30.8 µM
Cc1ccc2c3ccc4c(c3n(C)c2c1)C(=O)C=CC4=O | > 10 µM | > 10 µM | 4.95 µM | 8.6 µM | > 10 µM | > 10 µM | 2.61 µM | > 10 µM | > 6.18 µM | > 10 µM
Cn1cnc([N+](=O)[O-])c1Sc1nncc2[nH]cnc12 | > 100 µM | > 100 µM | > 100 µM | > 100 µM | > 100 µM | > 100 µM | > 100 µM | > 100 µM | > 100 µM | > 100 µM
Cc1nc2ccccc2n1CCc1nc2ccccc2[nH]1 | > 100 µM | > 100 µM | > 100 µM | > 100 µM | > 100 µM | > 100 µM | > 100 µM | > 100 µM | > 100 µM | > 100 µM
